# Test results from US8889639B2, “Compositions and methods for modulating PGC-1β to treat lipid-related diseases and disorders” (Dana-Farber Cancer Institute, Inc., priority 2004, dated 2014).
# Legend:
# [1] = system: LXRα; assay: 4×LXRE-luc reporter in H2.35 hepatoma cells; type: cell-based, mouse; conditions: reporter containing multimerized LXR responsive elements, RNAi cotransfection
# Experimental: FIG. 6A-E illustrate the coactivation of LXRα by PGC-1α and PGC-1β. In particular, FIG. 6A depicts H2.35 hepatoma cells that were transiently transfected with 4×LXRE-luc in combination with plasmids. Transfected cells were treated with either vehicle DMSO (open box) or 10 μM of the LXR agonist T0901317 (filled box) for 24 hours before luciferase assay. FIG. 6B depicts H2.35 hepatoma cells that were transiently transfected with wild-type ABCA1 promoter reporter plasmid-(ABCA1-luc) or a mutant lacking the LXRE (ABCA1 ΔLXRE-luc) in combination with plasmids. Transfected cells were treated with vehicle or T0901317 as described in FIG. 6A. FIG. 6C depicts CHIP analysis on LXR target genes. H2.35 cells were infected with adenoviruses expressing GFP, flag-PGC-1α or flag-PGC-1β. Cells were treated with 10 μM of T0901317 for 3 hours before harvesting. PCR was performed on input or precipitated DNA using primers as indicated FIG. 6D depicts the interaction between LXRα and the N-termini of the PGC-1β proteins. […]
# FIGS. 7A-H illustrate the requirement for PGC-1β in SREBP-mediated transcription. […] Luciferase activity was measured 48 hours after transfection. […] Total RNA was isolated from infected cells and analyzed by real-time PCR using primers specific for the genes. […] Relative SREBP1c expression was determined by real-time PCR analysis and normalized to 18S rRNA. […]
# [2] = system: SREBP2 and SREBP1a; assay: FAS -700 luc reporter with SREBP2 and SREBP1a and PGC-1β RNAi constructs in hepatoma cells; type: cell-based, mouse; conditions: FAS promoter reporter
# Text: (§1) FIGS. 7A-H illustrate the requirement for PGC-1β in SREBP-mediated transcription. In particular, FIG. 7A depicts knockdown of PGC-1β protein levels by RNAi constructs. Cultured 293 cells were transiently transfected with PGC-1β expression plasmid (f-PGC-1β) in the presence of RNAi constructs or a vector control. Transfected cells were harvested for immunoblotting using a monoclonal antibody against the Flag epitope. Both RNAi constructs decrease PGC-1β protein levels compared to the vector control. FIGS. 7 B-E depict hepatoma cells that were transiently transfected with FAS—700 luc (B-C), G6Pase −1200 luc (D) or 4×LXRE-luc (E) in combination with plasmids. For RNAi, either a vector control or RNAi constructs directed toward PGC-1β were included in the transfection experiments. Luciferase activity was measured 48 hours after transfection. FIG. 7F depicts knockdown of PGC-1β protein by adenoviral expression of RNAi. H2.35 hepatoma cells were infected with Ad-GFP or Ad-RNAi for two days and then infected with Ad-PGC-1β. Total lysates were prepared for immunoblotting analysis using antibodies raised against PGC-1β. […] Total RNA was isolated from infected cells and analyzed by real-time PCR using primers specific for the genes. […] Relative SREBP1c expression was determined by real-time PCR analysis and normalized to 18S rRNA. […]
# [3] = system: G6Pase promoter; assay: G6Pase -1200 luc reporter with PGC-1α and HNF4α and PGC-1β RNAi constructs in hepatoma cells; type: cell-based, mouse
# Text: as §1
# [4] = system: PGC-1α; assay: Free fatty acid treatment of primary hepatocytes, PGC-1α mRNA by real-time PCR; type: cell-based, mouse; conditions: 400 μM fatty acid, 4 hours
# Experimental: FIG. 1D depicts the regulation of PGC-1β expression by free fatty acids in isolated hepatocytes. Primary hepatocytes were treated with 400 μM of various fatty acids for 4 hours. Total RNA was isolated and analyzed by realtime PCR using primers specific for PGC-1β (filled box) and PGC-1β (open box); *: p<0.01.
# Total RNA was isolated from liver or cultured hepatocytes using Trizol reagent (Invitrogen™). […] Relative abundance of mRNA was calculated after normalization to 18S ribosomal RNA.
# [5] = system: PGC-1β; assay: Free fatty acid treatment of primary hepatocytes, PGC-1β mRNA by real-time PCR; type: cell-based, mouse; conditions: 400 μM fatty acid, 4 hours
# Text: FIGS. 1A-D depict the induction of PGC-1β expression by dietary intake of saturated fats. In particular, FIG. 1A depicts a cluster analysis of liver gene expression in response to high-fat feeding. FIG. 1A exemplifies genes involved in hepatic lipogenesis that are induced more than 1.8-fold in response to high-fat feeding. A representative probe set was used in generating the tree in the event multiple probe sets were available for a single gene. SREBP1c and PGC-1β were included in this lipogenic cluster. FIG. 1B depicts the real-time PCR analysis of total liver RNA from mice fed a high-fat diet for 1 day (hatched box) or 2 days (filled box). Relative mRNA abundance was calculated by normalization to the control chow values (open box); N=4;*: p<0.01. FIG. 1C depicts the real-time PCR analysis of total liver RNA from mice fed a control diet containing 0.07% cholesterol (open box) or a diet containing 2% cholesterol for 1 day (hatched box) or 2 days (filled box). Values were normalized to those from mice fed the control diet; N=4;*: p<0.02. FIG. 1D depicts the regulation of PGC-1β expression by free fatty acids in isolated hepatocytes. Primary hepatocytes were treated with 400 μM of various fatty acids for 4 hours. Total RNA was isolated and analyzed by realtime PCR using primers specific for […] and PGC-1β (open box); *: p<0.01.
# Primary hepatocytes were isolated following perfusion of whole liver first with perfusion buffer (Hank's Balanced Saline, HBSS) and then a collagenase solution (HBSS with 1% BSA and 0.05% collagenase). Dispersed cells were resuspended and seeded onto collagen-coated plates in DMEM supplemented with 10% FBS in the presence of 1 mM sodium pyruvate, 1 μM dexamethasone and 50 nM insulin. The cells were subsequently maintained in DMEM supplemented with 0.1% BSA and 1 mM sodium pyruvate for 24 hours before treatments. Free fatty acids were dissolved in ethanol as 100 mM stock solutions for further dilution in DMEM supplemented with 0.5% BSA to a final concentration of 400 μM. Hepatocytes were treated for 4 hours before RNA isolation and analysis.
# (§2) Total RNA was isolated from liver or cultured hepatocytes using Trizol reagent (Invitrogen™). For real-time PCR analysis, cDNA was synthesized by reverse transcription using random primers and subjected to PCR amplification with genespecific primers in the presence of Cybergreen (Biorad™). Relative abundance of mRNA was calculated after normalization to 18S ribosomal RNA. For hybridization, 20 μg of total RNA was resolved on a formaldehyde gel, transferred to nylon membrane and hybridized with 32P-labeled gene-specific probes. Hybridization to ribosomal protein 36B4 was included as loading control.
# [6] = system: hepatic gene expression; assay: High-cholesterol feeding, liver gene expression by real-time PCR; type: in vivo, mouse; conditions: diet containing 2% cholesterol vs 0.07% control
# Experimental: Animals were fed a standard rodent chow and housed in a controlled environment with twelve-hour light and dark cycles. For high-fat feeding, three-month old male C57/B16J mice were switched to a diet containing 58% fat-derived calorie (D12331, Research Diets™) for 24 or 48 hours. For high-cholesterol feeding, two groups of mice were fed a base diet supplemented with either 0.07% or 2% cholesterol for 24 or 48 hours. Liver was dissected and immediately frozen for RNA isolation. The feeding experiments were repeated three times with four mice per group for each dietary treatment.
# as §2
# To examine whether dietary cholesterol had any impact on the expression of SREBPs and PGC-1β mice were fed a control diet containing 0.07% cholesterol or a similar diet containing 2% cholesterol. […] This induction of the genetic program of hepatic lipogenesis following acute intake of a high saturated fat diet was not previously observed.
molecule,measurement,setting,value
"5′-GATATCCTCTGTGATGTTA-3′ (expressed or natural sequence) [SEQ ID NO 60, PGC-1β RNAi construct in pSUPER-retro vector under the H1-RNA promoter]",LXRα/RXRα transcriptional activity,[1],do not alter
same,SREBP transcriptional activity with SREBP2 and SREBP1a,[2],very similar reduction
same,regulation of G6Pase promoter activity by PGC-1α and HNF4α,[3],little or no effect
CCCCCC/C=C/CCCCCCCCCC(=O)O [trans-vaccenic acid],expression of PGC-1α,[4],3.2 fold
CCCCC/C=C\C/C=C\C/C=C\C/C=C\CCCC(=O)O [arachidonic acid],PGC-1β expression,[5],only slightly induce
CC/C=C\C/C=C\C/C=C\C/C=C\C/C=C\CCCC(=O)O [EPA],PGC-1β expression,[5],only slightly induce
"5′-GTACGGAACTGCATAAGCA-3′ (expressed or natural sequence; the letters are possibly those of the target site) [SEQ ID NO:61, PGC-1β RNAi construct in pSUPER-retro vector under the H1-RNA promoter]",LXRα/RXRα transcriptional activity,[1],do not alter
same,SREBP transcriptional activity with SREBP2 and SREBP1a,[2],very similar reduction
same,regulation of G6Pase promoter activity by PGC-1α and HNF4α,[3],little or no effect
CC(C)CCC[C@@H](C)[C@H]1CC[C@H]2[C@@H]3CC=C4C[C@@H](O)CC[C@]4(C)[C@H]3CC[C@]12C [cholesterol],SREBP1c mRNA,[6],slightly increased
same,expression of PGC-1β,[6],not altered
same,"hepatic expression of mRNA encoding SREBP2, along with HMGCoA reductase",[6],suppresses
same,"mRNA level of FAS, SCD-1 and glucose kinase (GK)",[6],remains largely unchanged
CCCCCCCC/C=C\CCCCCCCC(=O)O [oleic acid],PGC-1β expression,[5],only slightly induce
CCCCC/C=C\C/C=C\CCCCCCCC(=O)O [linoleic acid],PGC-1β expression,[5],only slightly induce
CCCCCCCCCCCCCCCCCC(=O)O [stearic acid],PGC-1β mRNA,[5],2.2 fold
CCCCCCCC/C=C/CCCCCCCC(=O)O [elaidic acid],expression of PGC-1α,[4],3.2 fold
